Data from PMC3199943, “Screening the MayBridge Rule of 3 Fragment Library for Compounds That Interact with the Trypanosoma brucei myo-Inositol-3-Phosphate Synthase and/or Show Trypanocidal Activity” (Molecular Biology International, 2011).
Where a name gives a salt, the structure may show the parent alone. Read-outs that look alike come from different tables or passages of the source.

Experiments:
TbINO1 = target: T1, TbINO1 (Trypanosoma brucei brucei, UniProt Q5QQ46); assay: biochemical; format: binding
T1 sequence (Q5QQ46 1-528): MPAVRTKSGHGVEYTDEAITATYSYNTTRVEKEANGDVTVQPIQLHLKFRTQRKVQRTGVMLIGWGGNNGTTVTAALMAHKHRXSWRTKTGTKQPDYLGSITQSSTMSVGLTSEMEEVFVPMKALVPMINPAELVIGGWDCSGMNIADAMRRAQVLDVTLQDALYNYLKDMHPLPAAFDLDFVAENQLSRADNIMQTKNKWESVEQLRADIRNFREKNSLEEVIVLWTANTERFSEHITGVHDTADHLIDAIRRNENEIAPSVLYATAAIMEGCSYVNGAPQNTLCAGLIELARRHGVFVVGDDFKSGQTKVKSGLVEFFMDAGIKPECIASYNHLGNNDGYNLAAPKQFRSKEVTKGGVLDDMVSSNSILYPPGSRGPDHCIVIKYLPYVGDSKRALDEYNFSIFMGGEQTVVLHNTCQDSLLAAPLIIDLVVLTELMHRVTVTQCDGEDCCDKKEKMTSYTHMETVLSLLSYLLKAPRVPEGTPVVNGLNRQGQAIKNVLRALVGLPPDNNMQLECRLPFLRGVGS

HeLa cells = assay: cells; conditions: for viability at 500 µM: 65 h; for HeLa Cells Alamar Blue: Supplementary Table 1, compound 0.5 mM, percentage of controls, mean ± SD (n=3) or SE (n=2)
In short: (§1)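 Viability by Alamar Blue (5 h) after ~65 h drug treatment; seeding density 2 × 10^4 cells/well in DMEM supplemented with 10% FCS and 2 mM L-Glutamine.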

A549 cells = assay: Cytotoxicity against A549 cells, Alamar Blue; format: cell-based; conditions: Supplementary Table 1, compound 0.5 mM, percentage of controls (n=1); for viability at 500 µM: Homo sapiens, A549, 65 h
In short: as §1

[1] = read-out: Tb Ino1 Tm Shift [˚C]
[2] = Homo sapiens, HeLa, read-out: HeLa Cells Alamar Blue
[3] = Homo sapiens, HeLa, read-out: HeLa Cells Alamar Blue (% survival)
[4] = Supplementary Table 1, compound 1mM, mean ± SD from Boltzman curve fitting
[5] = Supplementary Table 1, compound 1mM, mean ± SD from Boltzman curve fitting, read-out: Tb Ino1 Tm Shift [˚C]

Row | SMILES | ΔTm at 1000 µM (TbINO1; [1]) | viability at 500 µM (HeLa cells; [2]) | viability at 500 µM (A549 cells) | also measured
1 | Cc1cc(C(N)=S)no1 [compound 140, 5‐methylisoxazole‐3‐carbothioamide] | 0.2 ± 0.07 °C | 89.2 ± 6.5% | 110% | –
2 | N#Cc1cc(Cl)ccc1O [compound 218, 5‐chloro‐2‐hydroxybenzonitrile] | 0.43 ± 0.07 °C | 92 ± 11.8% | 67.7% | –
3 | Cc1ccc(CO)o1 [compound 30, (5-methyl-2-furyl)methanol] | – | 23.3 ± 18.6% | 23.7% | ΔTm at 1000 µM (TbINO1; read-out: TbIno1 Tm shift [°C]): 3.79 ± 0.08 °C; viability at 500 µM (HeLa cells; [3]): 23.3 ± 18.6%
4 | O=C(O)c1ccoc1 [compound 28, 3-furoic acid] | – | 48.2 ± 11.8% | 111% | ΔTm at 1000 µM (TbINO1; read-out: TbIno1 Tm shift [°C]): 3.72 ± 0.08 °C; viability at 500 µM (HeLa cells; [3]): 48.2 ± 11.8%
5 | O=C1CC(C(=O)O)c2ccccc21 (centres unmarked) [compound 409, 3‐oxoindane‐1‐carboxylic acid] | 0.03 ± 0.07 °C | 107 ± 10.9% | 92% | –
6 | Cc1occc(=O)c1O [compound 74, 3‐hydroxy‐2‐methyl‐4H‐pyran‐4‐one] | 1.13 ± 0.08 °C | 107 ± 10.5% | 105% | –
7 | Cc1cc(C(=O)O)c(-c2ccccc2)o1 [compound 635, 5‐methyl‐2‐phenyl‐3‐furoic acid] | 0.38 ± 0.04 °C | 17.7 ± 16.2% | 90.1% | –
8 | NC1=CC=C2OCOCC2C1 (centres unmarked) [compound 195, 4,5‐dihydro‐1,3‐benzodioxine‐6‐amine] | 1.16 ± 0.06 °C | 77.4 ± 10.5% | 54.1% | –
9 | COc1ccc(C#N)cn1 [compound 108, 6‐methoxynicotinonitrile] | 0.38 ± 0.07 °C | 95 ± 10.2% | 125% | –
10 | NCc1ccccc1N1CCOCC1 [compound 571, 2‐morpholinobenzylamine] | 0.06 ± 0.07 °C | 95 ± 17.5% | 70.9% | –
11 | COc1cccc(OC)c1SC [compound 481, 1,3‐dimethoxy‐2‐(methylthio)benzene] | 0.07 ± 0.08 °C | 104 ± 17.6% | 103% | –
12 | CCOC(=O)c1csc(C)n1 [compound 356, ethyl 2‐methyl‐1,3‐thiazole‐4‐carboxylate] | 0.28 ± 0.08 °C | 106 ± 5.3% | 79.8% | –
13 | CCOC(=O)c1c(N)sc(C)c1C [compound 617, ethyl 2‐amino‐4,5‐dimethylthiophene‐3‐carboxylate] | – | – | – | Tb Ino1 Tm Shift [˚C] (TbINO1; [4]): 1.47 ± 0.07 °C; HeLa Cells Alamar Blue (HeLa cells): 69.1 ± 9.3 percentage of controls; A549 Cells Alamar Blue (A549 cells): 75.2 percentage of controls
14 | O=C(O)C1CCCCO1 (centres unmarked) [compound 93, tetrahydropyran‐2‐carboxylic acid] | 0.55 ± 0.06 °C | 97.5 ± 2.4% | 107% | –
15 | COC(=O)c1ccccc1C [compound 183, methyl 2‐methylbenzoate] | 0.14 ± 0.08 °C | 114 ± 4.3% | 51% | –
16 | CC(=O)c1ccc(S(C)(=O)=O)cc1 [compound 604, 1‐[4‐(methylsulfonyl)phenyl]ethan‐1‐one] | 0.18 ± 0.06 °C | 83.1 ± 19.6% | 63.9% | –
17 | O=C(O)CCc1cccs1 [compound 237, 3‐(2‐thienyl)propanoic acid] | 0.22 ± 0.07 °C | 113 ± 7.8% | 70.9% | –
18 | Cc1cc(C(=O)O)c(C(F)(F)F)o1 [compound 583, 5‐methyl‐2‐(trifluoromethyl)‐3‐furoic acid] | 0.06 ± 0.07 °C | 86.1 ± 15.8% | 59.6% | –

Row | SMILES | ΔTm at 1000 µM (TbINO1; [1]) | viability at 500 µM (HeLa cells; [2]) | viability at 500 µM (A549 cells) | also measured
19 | c1cnc2c(c1)OCCN2 [compound 118, 3,4‐dihydro‐2H‐pyrido[3,2‐b][1,4]oxazine] | 0.46 ± 0.06 °C | 84.1 ± 18% | 92.3% | –
20 | CN1CCN(Cc2ccccc2N)CC1 [compound 670, 2‐[(4‐methylpiperazin‐1‐yl)methyl]aniline] | – | 94.6 ± 8.5% | 121% | ΔTm at 1000 µM (TbINO1; [5]): 0.05 ± 0.07 °C
21 | Cc1nnc(N)s1 [compound 39, 5‐methyl‐1,3,4‐thiadiazol‐2‐amine] | 0.31 ± 0.08 °C | 105 ± 14.5% | 72.3% | –
22 | NC1CCSCC1 [compound 45, tetrahydrothiopyran‐4‐ylamine] | 0.24 ± 0.07 °C | 88.6 ± 3.1% | 95.6% | –
23 | COc1ccc(OC)c(CN)c1 [compound 329, 2,5‐dimethoxybenzylamine] | – | 26 ± 9% | 156% | ΔTm at 1000 µM (TbINO1; [5]): 0.97 ± 0.05 °C
24 | NCc1csc(-c2cccs2)n1 [compound 599, [2‐(2‐thienyl)‐1,3‐thiazol‐4‐yl]methylamine] | – | – | – | Tb Ino1 Tm Shift [˚C] (TbINO1; [4]): 0.41 ± 0.06 °C; HeLa Cells Alamar Blue (HeLa cells): 71.9 ± 7.1 percentage of controls; A549 Cells Alamar Blue (A549 cells): 98.4 percentage of controls
25 | O=C(O)c1ccnc2ccccc12 [compound 368, quinoline‐4‐carboxylic acid] | 0.33 ± 0.08 °C | 90.7 ± 7.5% | 90.3% | –
26 | CC(C)(C)OC(=O)Nc1cccs1 [compound 620, tert-butyl N-(2-thienyl)carbamate] | – | 71.3 ± 13.6% | 109% | ΔTm at 1000 µM (TbINO1; read-out: TbIno1 Tm shift [°C]): 2.08 ± 0.1 °C; viability at 500 µM (HeLa cells; [3]): 71.3 ± 13.6%
27 | COC(=O)c1c[nH]c2ccccc12 [compound 392, methyl 1H‐indole‐3‐carboxylate] | 0.22 ± 0.06 °C | 110 ± 3.7% | 88.1% | –
28 | CC(=O)c1cc(F)cc(F)c1O [compound 360, 1‐(3,5‐difluoro‐2‐hydroxyphenyl)ethan‐1‐one] | – | – | – | Tb Ino1 Tm Shift [˚C] (TbINO1; [4]): 1.29 ± 0.05 °C; HeLa Cells Alamar Blue (HeLa cells): 103.5 ± 10 percentage of controls; A549 Cells Alamar Blue (A549 cells): 149.7 percentage of controls
29 | CN(C)C1(CN)CCSC1 (centres unmarked) [compound 268, 3‐(aminomethyl)‐N,N‐dimethyltetrahydro‐3‐thiophenamine] | – | – | – | Tb Ino1 Tm Shift [˚C] (TbINO1; [4]): 0.32 ± 0.07 °C; HeLa Cells Alamar Blue (HeLa cells): 88.4 ± 17.9 percentage of controls; A549 Cells Alamar Blue (A549 cells): 87.3 percentage of controls
30 | Cc1csc(N)c1C(N)=O [compound 239, 2-amino-4-methylthiophene-3-carboxamide] | – | 95.8 ± 9.3% | 69.8% | ΔTm at 1000 µM (TbINO1; read-out: TbIno1 Tm shift [°C]): 2.05 ± 0.05 °C; viability at 500 µM (HeLa cells; [3]): 95.8 ± 9.3%; CC50 (HeLa cells; Homo sapiens, HeLa, read-out: HeLa ED50): > 20 mM
31 | COC(=O)c1ccccc1-n1cccc1 [compound 628, methyl 2‐(1H‐pyrrol‐1‐yl)benzoate] | 0.84 ± 0.08 °C | 70.4 ± 14% | 85.1% | –
32 | O=C(O)Cc1cccnc1 [compound 381, pyridin‐3‐ylacetic acid hydrochloride] | 1.08 ± 0.05 °C | 99.2 ± 9.9% | 105% | –
33 | O=C(O)c1nsc(Cl)c1Cl [compound 602, 4,5‐dichloroisothiazole‐3‐carboxylic acid] | 0.1 ± 0.07 °C | 83.2 ± 12.5% | 68.2% | –
34 | CC(=O)N1CCC(C#N)CC1 [compound 207, 1‐acetylpiperidine‐4‐carbonitrile] | 0.03 ± 0.07 °C | 90 ± 2.9% | 65.3% | –
35 | COc1ccc(Cl)cc1C(=O)O [compound 508, 5‐chloro‐2‐methoxybenzoic acid] | 0.07 ± 0.07 °C | 78.4 ± 17.3% | 101% | –
